Experimental data taken from US10233173B2, “Substituted 1,2,3-triazoles as NR2B-selective NMDA modulators” (JANSSEN PHARMACEUTICA NV, priority 2016, dated 2019).

Molecular target: human GluN1/GluN2B NMDA receptors (Homo sapiens, UniProt Q05586+Q13224)
Assay: Cell-based calcium flux (FLIPR) assay on cloned human NR1/NR2B ion channels expressed in mammalian cells
Details: standard assay
Outline: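 Calcium influx followed by FLIPR fluorescence after 5 min compound exposure and a further 5 min co-agonist challenge: 10 μM glycine with glutamate at ~EC80 (standard) or EC40 (HTS).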

[1] = glutamate at ~EC80, FLIPR calcium flux
[2] = human GluN1/GluN2B, calcium flux (FLIPR), glutamate ~EC80

Chain of human GluN1/GluN2B NMDA receptors (Q13224 27-1484, other chains not shown): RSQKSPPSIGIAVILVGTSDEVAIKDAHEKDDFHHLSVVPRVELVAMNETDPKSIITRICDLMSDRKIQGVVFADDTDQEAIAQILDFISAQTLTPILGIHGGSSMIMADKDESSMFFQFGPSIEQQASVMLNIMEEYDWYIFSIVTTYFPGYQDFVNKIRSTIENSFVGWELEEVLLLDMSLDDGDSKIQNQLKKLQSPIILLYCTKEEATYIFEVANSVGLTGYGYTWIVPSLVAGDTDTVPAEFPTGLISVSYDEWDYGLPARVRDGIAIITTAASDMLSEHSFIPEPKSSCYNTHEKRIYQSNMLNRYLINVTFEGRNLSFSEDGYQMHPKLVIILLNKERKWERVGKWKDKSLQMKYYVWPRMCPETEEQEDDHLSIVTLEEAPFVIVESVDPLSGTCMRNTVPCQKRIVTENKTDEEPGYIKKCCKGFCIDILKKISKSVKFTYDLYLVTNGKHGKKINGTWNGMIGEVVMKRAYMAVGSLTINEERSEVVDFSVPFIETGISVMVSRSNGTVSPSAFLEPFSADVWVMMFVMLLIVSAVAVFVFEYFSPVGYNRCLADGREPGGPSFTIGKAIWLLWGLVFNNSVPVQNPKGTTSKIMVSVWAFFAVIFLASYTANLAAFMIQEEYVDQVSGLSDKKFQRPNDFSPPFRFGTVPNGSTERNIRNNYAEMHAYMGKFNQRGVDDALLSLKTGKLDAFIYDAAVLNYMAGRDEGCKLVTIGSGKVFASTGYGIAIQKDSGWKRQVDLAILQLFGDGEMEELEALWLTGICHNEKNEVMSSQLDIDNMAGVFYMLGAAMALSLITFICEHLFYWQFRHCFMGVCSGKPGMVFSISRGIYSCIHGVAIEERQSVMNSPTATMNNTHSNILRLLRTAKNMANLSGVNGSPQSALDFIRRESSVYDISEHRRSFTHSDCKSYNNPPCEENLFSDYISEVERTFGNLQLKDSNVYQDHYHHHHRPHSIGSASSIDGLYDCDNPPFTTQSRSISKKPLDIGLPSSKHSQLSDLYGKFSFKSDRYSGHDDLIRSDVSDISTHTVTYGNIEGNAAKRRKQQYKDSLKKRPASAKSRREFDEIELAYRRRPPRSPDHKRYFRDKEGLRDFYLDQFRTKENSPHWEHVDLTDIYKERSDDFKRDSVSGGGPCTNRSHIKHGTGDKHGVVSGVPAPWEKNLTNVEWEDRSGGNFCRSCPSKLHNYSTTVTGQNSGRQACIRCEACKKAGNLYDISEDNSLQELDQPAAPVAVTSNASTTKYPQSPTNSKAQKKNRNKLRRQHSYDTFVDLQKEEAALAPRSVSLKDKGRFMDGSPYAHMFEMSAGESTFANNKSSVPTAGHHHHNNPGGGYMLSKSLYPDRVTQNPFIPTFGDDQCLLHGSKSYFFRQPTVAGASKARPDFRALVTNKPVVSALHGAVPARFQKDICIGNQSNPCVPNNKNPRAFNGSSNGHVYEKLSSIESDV

| SMILES | IC50 [1] [µM] | IC50 [2] [µM] |
| --- | --- | --- |
| Fc1ccc(-n2cc(COc3nccc(-c4ccc[nH]4)n3)nn2)cc1OC(F)F [Example 681, 2-((1-(3-(Difluoromethoxy)-4-fluorophenyl)-1H-1,2,3-triazol-4-yl)methoxy)-4-(1H-pyrrol-2-yl)pyrimidine] | 0.681 | – |
| CC(F)(F)c1cc(-n2cc(COc3nccc(N)n3)nn2)ccc1Cl [Example 547, 2-[[1-[4-Chloro-3-(1,1-difluoroethyl)phenyl]triazol-4-yl]methoxy]pyrimidin-4-amine] | 0.033 | – |
| OCc1ccnc(OCc2cn(-c3ccc(F)c(Br)c3)nn2)n1 [Example 617, [2-[[1-(3-Bromo-4-fluoro-phenyl)triazol-4-yl]methoxy]pyrimidin-4-yl]methanol] | 0.041 | – |
| CNc1nc(OCc2cn(-c3cccc(C(C)(F)F)c3)nn2)ncc1F [Example 315, 2-[[1-[3-(1,1-Difluoroethyl)phenyl]triazol-4-yl]methoxy]-5-fluoro-N-methyl-pyrimidin-4-amine] | – | 0.158 |
| Cc1cnc(OCc2cn(-c3ccc(F)c(C)c3F)nn2)nc1 [Example 38, 2-[[1-(2,4-Difluoro-3-methyl-phenyl)triazol-4-yl]methoxy]-5-methyl-pyrimidine] | – | 0.027 |
| Cc1cccc(-n2cc(COc3ncc(Cl)cn3)nn2)c1 [Example 246, 5-Chloro-2-[[1-(m-tolyl)triazol-4-yl]methoxy]pyrimidine] | – | 0.033 |
| Cc1ccc(F)c(-n2cc(COc3ncc(F)c(C)n3)nn2)c1 [Example 486, 5-Fluoro-2-[[1-(2-fluoro-5-methyl-phenyl)triazol-4-yl]methoxy]-4-methyl-pyrimidine] | > 2.99 | – |
| Cc1ccccc1-n1cc(COc2ncc(Cl)cn2)nn1 [Example 239, 5-Chloro-2-[[1-(o-tolyl)triazol-4-yl]methoxy]pyrimidine] | – | 4.8 |
| CC(Oc1ncccn1)c1cn(-c2ccc(Cl)c(OC(F)F)c2)nn1 (racemic) [Example 53, (R/S)-2-[1-[1-[4-Chloro-3-(difluoromethoxy)phenyl]triazol-4-yl]ethoxy]pyrimidine] | – | 0.026 |
| FC(F)c1cccc(-n2cc(COc3ncc(Cl)cn3)nn2)c1 [Example 92, 5-Chloro-2-[[1-[3-(difluoromethyl)phenyl]triazol-4-yl]methoxy]pyrimidine] | – | 0.019 |
| Cc1cnc(OCc2cn(-c3ccc(F)c(OC(F)F)c3)nn2)nc1N(C)C [Example 516, 2-[[1-[3-(Difluoromethoxy)-4-fluoro-phenyl]triazol-4-yl]methoxy]-N,N,5-trimethyl-pyrimidin-4-amine] | 0.017 | – |
| Fc1ccc(-n2cc(CNc3ncccn3)nn2)cc1OC(F)F [Example 36, N-[[1-[3-(Difluoromethoxy)-4-fluoro-phenyl]triazol-4-yl]methyl]pyrimidin-2-amine] | – | 0.351 |
| CCNc1cnc(OCc2cn(-c3ccc(F)c(C(F)(F)F)c3)nn2)nc1 [Example 459, 2-((1-(3-(Trifluoromethyl)-4-fluorophenyl)-1H-1,2,3-triazol-4-yl)methoxy)-N-ethylpyrimidin-5-amine] | 0.126 | – |
| COc1cnc(OCc2cn(-c3ccccc3C)nn2)nc1 [Example 238, 5-Methoxy-2-[[1-(o-tolyl)triazol-4-yl]methoxy]pyrimidine] | – | 5.99 |
| Cc1cnc(NCc2cn(-c3ccc(F)c(C(F)F)c3)nn2)nc1C [Example 217, N-((1-(3-(Difluoromethyl)-4-fluorophenyl)-1H-1,2,3-triazol-4-yl)methyl)-4,5-dimethylpyrimidin-2-amine] | – | 0.012 |
| Cc1cccc(-n2cc(COc3ncc(Cl)c(C)n3)nn2)n1 [Example 661, 5-Chloro-4-methyl-2-[[1-(6-methyl-2-pyridyl)triazol-4-yl]methoxy]pyrimidine] | > 2.99 | – |
| Fc1cnc(OCc2cn(-c3ccc(OC(F)F)cc3)nn2)nc1 [Example 330, 2-[[1-[4-(Difluoromethoxy)phenyl]triazol-4-yl]methoxy]-5-fluoro-pyrimidine] | – | 0.752 |
